Data reported in patent publication US8574563B2 (Bristol-Myers Squibb Company, priority 2006, dated 2013).

These molecules were tested on HCV 1b-377-neo replicon cells (assay: HCV replicon assay, HCV 1b-377-neo replicon cells (1b FRET)). Conditions: HCV 1b-377-neo replicon cells; HCV 1b genotype.
Assay type: cell-based, Hepatitis C virus genotype 1b
Summary of the method: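 Compounds were tested in genotype 1b subgenomic replicon cells carrying a neomycin marker, alongside a matched replicon line with an NS5A Y2065H substitution that confers resistance to a reference NS5A inhibitor.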

Compound	EC50 range against HCV 1b (Table 2, Range)
COC(=O)N[C@@H](C(=O)N1CCC[C@H]1c1ncc(-c2ccc(-c3ccc(-c4cnc([C@@H]5CCCN5C(=O)[C@H](NC(=O)OC)C5CC5)[nH]4)cc3C(=O)O)cc2)[nH]1)C1CC1 [Example M115, 4,4′-bis(2-((2S)-1-((2R)-2-cyclopropyl-2-((methoxycarbonyl)amino)acetyl)-2-pyrrolidinyl)-1H-imidazol-5-yl)-2-biphenylcarboxylic acid]	>A

Same assay, conditions: Hepatitis C virus, HCV 1b-377-neo replicon cells; HCV 1b genotype; read-out: EC50 range against HCV 1b (Table 2, Range)

Compound	EC50
COC[C@H](NC(=O)OC)C(=O)N1CCC[C@H]1c1ncc(-c2ccc(-c3ccc(-c4cnc([C@@H]5CCCN5C(=O)[C@H](C)NC(=O)OC)[nH]4)cc3)cc2)[nH]1 [Example M100, methyl ((1S)-2-((2S)-2-(5-(4′-(2-((2S)-1-(N-(methoxycarbonyl)-L-alanyl)-2-pyrrolidinyl)-1H-imidazol-5-yl)-4-biphenylyl)-1H-imidazol-2-yl)-1-pyrrolidinyl)-1-(methoxymethyl)-2-oxoethyl)carbamate]	1 to 99 nM
CN1CCC(C(=O)N[C@@H](C(=O)N2CCC[C@H]2c2ncc(-c3ccc(-c4ccc(-c5cnc([C@@H]6CCCN6C(=O)[C@@H]6CCCO6)[nH]5)cc4)cc3)[nH]2)c2ccccc2)CC1 [Example 114, 1-methyl-N-((1R)-2-oxo-1-phenyl-2-((2S)-2-(5-(4′-(2-((2S)-1-((2S)-tetrahydro-2-furanylcarbonyl)-2-pyrrolidinyl)-1H-imidazol-5-yl)-4-biphenylyl)-1H-imidazol-2-yl)-1-pyrrolidinyl)ethyl)-4-piperidinecarboxamide]	0.001 to 0.999 nM
COC(=O)N[C@H](C(=O)N1CCC[C@H]1c1nc(-c2ccc(-c3ccc(-c4[nH]c([C@@H]5CCCN5C(=O)[C@@H](NC(=O)OC)C(C)C)nc4C)cc3)cc2)c(C)[nH]1)C(C)C [Example E5l, methyl ((1S)-1-(((2S)-2-(4-(4′-(2-((2S)-1-((2S)-2-((methoxycarbonyl)amino)-3-methylbutanoyl)-2-pyrrolidinyl)-4-methyl-1H-imidazol-5-yl)-4-biphenylyl)-5-methyl-1H-imidazol-2-yl)-1-pyrrolidinyl)carbonyl)-2-methylpropyl)carbamate]	0.001 to 0.999 nM
CCN(CC)[C@@H](C(=O)N1CCC[C@H]1c1ncc(-c2ccc(-c3ccc(-c4cnc([C@@H]5CCCN5C(=O)[C@H](NC(=O)OC)c5ccccc5)[nH]4)cc3)cc2F)[nH]1)c1ccccc1 [Example D39, methyl ((1R)-2-((2S)-2-(5-(4′-(2-((2S)-1-((2R)-2-(diethylamino)-2-phenylacetyl)-2-pyrrolidinyl)-1H-imidazol-5-yl)-3′-fluoro-4-biphenylyl)-1H-imidazol-2-yl)-1-pyrrolidinyl)-2-oxo-1-phenylethyl)carbamate]	0.001 to 0.999 nM
COC(=O)N[C@@H](C(=O)N1CCC[C@H]1c1ncc(-c2ccc(-c3ccc(-c4cnc([C@@H]5CCCN5C(=O)c5ncc[nH]5)[nH]4)cc3)cc2)[nH]1)c1ccccc1 [Example 63, methyl ((1R)-2-((2S)-2-(5-(4′-(2-((2S)-1-(1H-imidazol-2-ylcarbonyl)-2-pyrrolidinyl)-1H-imidazol-5-yl)-4-biphenylyl)-1H-imidazol-2-yl)-1-pyrrolidinyl)-2-oxo-1-phenylethyl)carbamate]	0.001 to 0.999 nM
COC(=O)N[C@@H](Cc1ccc(CNC(C)=O)cc1)C(=O)N1CCC[C@H]1c1ncc(-c2ccc(-c3ccc(-c4cnc([C@@H]5CCCN5C(=O)[C@@H](NC(=O)OC)C(C)C)[nH]4)cc3)cc2)[nH]1 [cj-114, methyl ((1S)-1-(4-(acetamidomethyl)benzyl)-2-((2S)-2-(5-(4′-(2-((2S)-1-((2S)-2-((methoxycarbonyl)amino)-3-methylbutanoyl)-2-pyrrolidinyl)-1H-imidazol-5-yl)-4-biphenylyl)-1H-imidazol-2-yl)-1-pyrrolidinyl)-2-oxoethyl)carbamate]	0.001 to 0.999 nM
C[C@@H](c1ncc(-c2ccc(-c3ccc(-c4cnc([C@H](C)N(C)C(=O)[C@@H](c5ccccc5)N5CCCCC5)[nH]4)cc3)cc2)[nH]1)N(C)C(=O)[C@@H](c1ccccc1)N1CCCCC1 [Example 24-18-3, (2R,2′R)-N,N′-(4,4′-biphenyldiylbis(1H-imidazole-5,2-diyl(1S)-1,1-ethanediyl))bis(N-methyl-2-phenyl-2-(1-piperidinyl)acetamide)]	0.001 to 0.999 nM
COC(=O)N[C@@H](C(=O)N1CCC[C@H]1c1ncc(-c2ccc(-c3ncc(-c4cnc([C@@H]5CCCN5C(=O)[C@@H](c5ccccc5)N5CCCCC5)[nH]4)cn3)cc2)[nH]1)c1ccccc1 [Example 152l-3]	0.001 to 0.999 nM
COC(=O)N[C@H]1CCC[C@@H]1C(=O)N1CCC[C@H]1c1ncc(-c2ccc(-c3ccc(-c4cnc([C@@H]5CCCN5C(=O)[C@H](NC(=O)OC)c5ccccc5)[nH]4)cc3)cc2)[nH]1 [cj-117, methyl ((1R)-2-((2S)-2-(5-(4′-(2-((2S)-1-(((1S,2S)-2-((methoxycarbonyl)amino)cyclopentyl)carbonyl)-2-pyrrolidinyl)-1H-imidazol-5-yl)-4-biphenylyl)-1H-imidazol-2-yl)-1-pyrrolidinyl)-2-oxo-1-phenylethyl)carbamate]	0.001 to 0.999 nM
COC(=O)N[C@@H](Cc1c[nH]c2ccccc12)C(=O)N1CCC[C@H]1c1ncc(-c2ccc(-c3ccc(-c4cnc([C@@H]5CCCN5C(=O)[C@@H](NC(=O)OC)[C@@H](C)OC)[nH]4)cc3)cc2)[nH]1 [cj-100, methyl ((1S)-1-(1H-indol-3-ylmethyl)-2-((2S)-2-(5-(4′-(2-((2S)-1-((2S,3R)-3-methoxy-2-((methoxycarbonyl)amino)butanoyl)-2-pyrrolidinyl)-1H-imidazol-5-yl)-4-biphenylyl)-1H-imidazol-2-yl)-1-pyrrolidinyl)-2-oxoethyl)carbamate]	0.001 to 0.999 nM
CCN(CC)[C@@H](C(=O)N1CCC[C@H]1c1ncc(-c2ccc(-c3ccc(-c4cnc([C@@H]5CCCN5C(=O)C[C@@H](Cc5ccccc5)NC(=O)OC)[nH]4)cc3)cc2)[nH]1)c1ccccc1 [cj-58, methyl ((1R)-1-benzyl-3-((2S)-2-(5-(4′-(2-((2S)-1-((2R)-2-(diethylamino)-2-phenylacetyl)-2-pyrrolidinyl)-1H-imidazol-5-yl)-4-biphenylyl)-1H-imidazol-2-yl)-1-pyrrolidinyl)-3-oxopropyl)carbamate]	0.001 to 0.999 nM
COC(=O)N[C@@H](CC(=O)O)C(=O)N1CCC[C@H]1c1ncc(-c2ccc(-c3ccc(-c4cnc([C@@H]5CCCN5C(=O)[C@@H](NC(=O)OC)C(C)C)[nH]4)cc3)cc2)[nH]1 [Example M111, (3S)-3-((methoxycarbonyl)amino)-4-((2S)-2-(5-(4′-(2-((2S)-1-(N-(methoxycarbonyl)-L-valyl)-2-pyrrolidinyl)-1H-imidazol-5-yl)-4-biphenylyl)-1H-imidazol-2-yl)-1-pyrrolidinyl)-4-oxobutanoic acid]	1000 to 10000 nM
COC(=O)N[C@@H](CC(=O)N(C)C)C(=O)N1CCC[C@H]1c1ncc(-c2ccc(-c3ccc(-c4cnc([C@@H]5CCCN5C(=O)[C@@H](NC(=O)OC)C(C)C)[nH]4)cc3)cc2)[nH]1 [Example M113, methyl ((1S)-3-(dimethylamino)-1-(((2S)-2-(5-(4′-(2-((2S)-1-((2S)-2-((methoxycarbonyl)amino)-3-methylbutanoyl)-2-pyrrolidinyl)-1H-imidazol-5-yl)-4-biphenylyl)-1H-imidazol-2-yl)-1-pyrrolidinyl)carbonyl)-3-oxopropyl)carbamate]	1 to 99 nM
COC(=O)N[C@H](C(=O)N1CCC[C@H]1c1ncc(-c2ccc(-c3ccc(-c4cnc([C@@H]5CCCN5C(=O)[C@@H](NC5=NCCS5)C(C)C)[nH]4)cc3)cc2)[nH]1)C(C)C [cj-15c, methyl ((1S)-1-(((2S)-2-(5-(4′-(2-((2S)-1-(N-(4,5-dihydro-1,3-thiazol-2-yl)-L-valyl)-2-pyrrolidinyl)-1H-imidazol-5-yl)-4-biphenylyl)-1H-imidazol-2-yl)-1-pyrrolidinyl)carbonyl)-2-methylpropyl)carbamate]	0.001 to 0.999 nM
COC(=O)N[C@H](C(=O)N1CCC[C@H]1c1ncc(-c2ccc(-c3ccc(-c4cnc([C@@H]5CCCN5C(=O)[C@@H](NC(=O)OC)[C@H](C)CO)[nH]4)cc3)cc2)[nH]1)C(C)C [Example M107]	1 to 99 nM
COC(=O)N[C@@H](C(=O)N1CCC[C@H]1c1ncc(-c2ccc(-c3ccc(-c4cnc([C@@H]5CCCN5C(=O)[C@H](OC)c5ccccc5)[nH]4)cc3)cc2)[nH]1)c1ccccc1Cl [Example 107-43, methyl ((1R)-1-(2-chlorophenyl)-2-((2S)-2-(5-(4′-(2-((2S)-1-((2R)-2-methoxy-2-phenylacetyl)-2-pyrrolidinyl)-1H-imidazol-5-yl)-4-biphenylyl)-1H-imidazol-2-yl)-1-pyrrolidinyl)-2-oxoethyl) carbamate]	0.001 to 0.999 nM
COC(=O)N[C@@H](C)C(=O)N1CCC[C@H]1c1ncc(-c2ccc(-c3ccc(-c4cnc([C@@H]5CCCN5C(=O)[C@H]5CCC[C@@H]5NC(=O)OC)[nH]4)cc3)cc2)[nH]1 [cj-118, methyl ((1S,2S)-2-(((2S)-2-(5-(4′-(2-((2S)-1-(N-(methoxycarbonyl)-L-alanyl)-2-pyrrolidinyl)-1H-imidazol-5-yl)-4-biphenylyl)-1H-imidazol-2-yl)-1-pyrrolidinyl)carbonyl)cyclopentyl)carbamate]	0.001 to 0.999 nM
CN(C)[C@@H](C(=O)N1CCC[C@H]1c1ncc(-c2ccc(-c3ccc(-c4cnc([C@@H]5CCCN5C(=O)Cc5cccs5)[nH]4)cc3)cc2)[nH]1)c1ccccc1 [Example 94-47, (1R)-N,N-dimethyl-2-oxo-1-phenyl-2-((2S)-2-(5-(4′-(2-((2S)-1-(2-thienylacetyl)-2-pyrrolidinyl)-1H-imidazol-5-yl)-4-biphenylyl)-1H-imidazol-2-yl)-1-pyrrolidinyl)ethanamine]	0.001 to 0.999 nM
COC(=O)N[C@@H](Cc1c[nH]cn1)C(=O)N1CCC[C@H]1c1ncc(-c2ccc(-c3ccc(-c4cnc([C@@H]5CCCN5C(=O)[C@H](Cc5c[nH]cn5)NC(=O)OC)[nH]4)cc3)cc2)[nH]1 [cj-131, methyl ((1S)-2-((2S)-2-(5-(4′-(2-((2S)-1-((2S)-3-(1H-imidazol-4-yl)-2-((methoxycarbonyl)amino)propanoyl)-2-pyrrolidinyl)-1H-imidazol-5-yl)-4-biphenylyl)-1H-imidazol-2-yl)-1-pyrrolidinyl)-1-(1H-imidazol-4-ylmethyl)-2-oxoethyl)carbamate]	1 to 99 nM
